Assay results published in US8466311B2, “Neuroprotective compositions and methods” (Sanford-Burnham Medical Research Institute, priority 2006, dated 2013).

Assays:
Keap1 = molecular target: T1, Keap1 (Mus musculus, UniProt Q9Z2X8); assay: Binding of CAB/CA to Keap1 and Keap1 deletion mutants (streptavidin precipitation); conditions: PC12h cells transfected with Keap1 (non-HA-tagged)
T1 construct: expressed in transfected cells; host or cells: COS7 cells
Experimental: (3) Expression vectors for HA-tagged Keap1 and Keap1 deletion mutants. These constructs were obtained from Dr. Akira Kobayashi of Tohoku University (Hosoya et al., J. Biol. Chem. 29:27244-27250, 2006; Kobayashi et al., Mol. Cell. Biol. 26:221-229, 2006).
Immunoprecipitation with agarose-immobilized streptavidin or antibody. PC12h cells (CAB- or vehicle-treated) were lysed in RIPA buffer supplemented with protease inhibitor cocktail. The lysates were centrifuged at 15,000 rpm for 10 min at 4° C., after which the supernatants were incubated with agarose-immobilized streptavidin at 4° C. for 1 h. Alternatively, for immunoprecipitation with anti-Keap1, the cell lysates were incubated with the antibody at 4° C. overnight, after which protein A immobilized on Sepharose CL-4B was added and incubation continued at 4° C. for 1 h. Then, the complexes were washed three times with rinse buffer (150 mM NaCl, 50 mM Tris-HCl [pH 7.5], 0.1% NP-40, 1 mM EDTA, and 0.02% NaN3). SDS sample buffer was added, the mixture was boiled for 5 min, and the supernatants were subjected to SDS-PAGE. Immunoblotting was then performed as described above.
CA activates the Keap1/Nrf2/ARE pathway. […] The initial reaction in this activation cascade is the binding of an electrophilic compound to specific cysteines on Keap1 protein (Hong et al., Chem. Res. Toxicol. 18: 1917-1926, 2005; Eggler et al., Proc. Nat. Acad. Sci. USA 102:10070-10075, 2005; Zhang et al., Mol. Cell. Biol. 10941-10953, 2004). Such binding initiates a cellular transcription pathway leading to induction of phase 2 enzymes (Talalay, Biofactors 12:5-11, 2000; Padmanabham et al., Mol. Cell 21:689-700, 2006; Itoh et al., Free Radic. Biol. Med. 36:1208-1213, 2004). Therefore, we examined the domains of Keap1 (designated BTB, IVR, and DGR) to determine those essential for binding to CA. Accordingly, for co-immunoprecipitation experiments, we transfected COS7 cells with DNA expressing either HA-tagged wild type Keap1 protein (HA-WT Keap1) or various deletion mutants of tagged Keap1 protein (HA-ΔBTB Keap1, HA-ΔIVR Keap1, and HA-ΔDGR Keap1). The transfected COS7 cells were then treated with vehicle or 10 μM CAB and lysed. We quantified the expression level of Keap1 protein in total cell lysates with anti-HA antibody. Each Keap1 mutant protein was expressed at a similar level of the predicted molecular weight (57 kDa for HA-ΔBTB Keap1, 53 kDa for HA-ΔIVR Keap1, and 37 kDa for HA-ΔDGR Keap1). Next, in order to detect Keap1/CAB complexes, we immunoprecipitated cell lysates with streptavidin and probed with anti-HA antibody. […] The requirement of the BTB domain for CA binding is in accord with prior results (Hong et al., Chem. Res. Toxicol. 18:1917-1926, 2005; Eggler et al., Proc. Nat. Acad. Sci. USA 102:10070-10075, 2005; Zhang et al., Mol. Cell. Biol. 24:10941-10953, 2004).
After binding of the electrophilic quinone-form of CA to Keap1 protein, activation of the Keap1/Nrf2 pathway requires nuclear translocation of Nrf2 (Talalay, Biofactors 12:5-11, 2000; Padmanabham et al., Mol. Cell 21:689-700, 2006; Itoh et al., Free Radic. Biol. Med. 36:1208-1213, 2004). Thus, we next examined the intracellular distribution of Nrf2 protein in COS7 cells by immunofluorescence.

neural cells = assay: Neuroprotection and toxicity of CA in vitro (summary statements); format: cell-based
[1] = test system: cAMP-responsive element (CRE); assay: Enhancer element luciferase reporter p3xCREluc; format: cell-based; conditions: NEPP11 2 μM
Experimental: (§1) Because the E1 and E2 regions also contain other enhancer elements, we tested the effects of NEPP11 (2 μM) on the expression of luciferase activity derived from these elements, including the cAMP-responsive element (CRE; p3xCREluc), AP-1 binding site (p3xAP1luc), NF-κB binding site (p3xNF-κBluc), NFAT-binding site (p3xNFATluc), ETS-binding site (p3xETSluc), and MEF2-binding site (p3xMEF2luc).

NFAT-binding site = assay: Enhancer element luciferase reporter p3xNFATluc; format: cell-based; conditions: NEPP11 2 μM
Experimental: as §1

ARE probe = assay: EMSA with biotin-labeled ARE probe, HT22 nuclear lysates; format: cell-based; conditions: HT22 cells, NEPP11 1 μM, 8 h
Experimental: Electrophoretic mobility shift assays (EMSAs). Double-stranded antioxidant-responsive elements (AREs) were labeled by using a biotin 3′-end DNA labeling kit (Pierce). Nuclear lysates were incubated with the labeled probe for 20 min at room temperature, resolved on an 8% native polyacrylamide gel, and transferred to Hybond-N^+ (Amersham Pharmacia). Signals were visualized with peroxidase-conjugated streptavidin (Pierce).
To confirm that NEPP11 leads to an increase in transcription factors, including Nrf2, that bind to the ARE, we performed EMSAs. HT22 cells were incubated for 8 h with vehicle or NEPP11 (1 μM). EMSAs were performed by using 10 μg of nuclear lysates per lane and a biotin-labeled ARE probe. In one lane, anti-Nrf2 antibody (100×) was added to supershift Nrf2 protein binding to ARE probe. In another lane, an excess amount of non-labeled probe was added to the sample to compete out the labeled ARE probe from binding to proteins in the nuclear lysates. […] The band representing the labeled ARE probe was shifted in the presence of control lysates, indicating binding of endogenous transcription factors to the ARE. […] In contrast, the band was totally abrogated in the presence of excess unlabeled probe. […]

T1 sequence (Q9Z2X8 whole entry): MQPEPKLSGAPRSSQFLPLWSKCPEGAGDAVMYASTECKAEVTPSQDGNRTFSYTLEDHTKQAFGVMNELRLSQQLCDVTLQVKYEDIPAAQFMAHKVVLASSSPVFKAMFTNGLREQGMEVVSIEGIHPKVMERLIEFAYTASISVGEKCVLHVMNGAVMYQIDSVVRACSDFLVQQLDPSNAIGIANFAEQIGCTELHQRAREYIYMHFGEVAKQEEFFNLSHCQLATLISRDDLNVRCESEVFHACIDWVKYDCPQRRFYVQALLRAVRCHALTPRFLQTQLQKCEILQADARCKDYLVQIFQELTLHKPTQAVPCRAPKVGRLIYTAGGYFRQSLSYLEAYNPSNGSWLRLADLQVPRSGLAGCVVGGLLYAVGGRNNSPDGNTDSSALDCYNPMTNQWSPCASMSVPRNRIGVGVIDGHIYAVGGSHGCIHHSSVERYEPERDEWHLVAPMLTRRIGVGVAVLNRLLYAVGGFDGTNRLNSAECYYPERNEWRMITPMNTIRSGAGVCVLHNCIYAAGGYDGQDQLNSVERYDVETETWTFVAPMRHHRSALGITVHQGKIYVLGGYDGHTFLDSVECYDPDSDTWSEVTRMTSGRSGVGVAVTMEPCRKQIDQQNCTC

Row | SMILES | complex formation with Keap1 (Keap1) | toxicity in vitro relative to NEPP11 (neural cells) | toxicity to neural cells (neural cells; 100 μM CA) | neuroprotective concentration (neural cells; as little as) | activity of p3xCREluc [1] | activity of p3xNFATluc (NFAT-binding site) | shifted ARE probe band intensity (ARE probe)
1 | CC(C)c1cc2c(c(O)c1O)[C@@]1(C(=O)O)CCCC(C)(C)[C@@H]1CC2 [CA, carnosic acid] | formed CA/Keap1 complexes | less toxic than NEPP11 | not toxic | 1-3 |  |  | 
2 | COC(=O)CCCCC/C=C1/C(=O)C=C[C@H]1CCCCCCc1ccc(C)cc1 [NEPP11] |  |  |  |  | slightly depressed | slightly depressed | significant increase in the intensity of this band
